Literature values in article PMC9599640.

Design: method as in PMID 27217383
Conditions: phase I trial of abemaciclib

CCN1CCN(Cc2ccc(Nc3ncc(F)c(-c4cc(F)c5nc(C)n(C(C)C)c5c4)n3)nc2)CC1 [abemaciclib]
MTD: 200 mg BID
